Experimental data: paper PMC7365701 (Journal of medicinal chemistry, 2020)

Tests used:
[1] = molecular target: human ether-á-go-go (hERG) potassium channel (Homo sapiens, UniProt Q12809); assay: hERG automated whole cell patch-clamp; assay type: cell-based; settings: tested at 0.1, 1 and 10 μM; ≥50% inhibition at 10 μM flagged as toxic
[2] = system: retinal vascular leakage in diabetic rats; assay: STZ-induced diabetic rat model, retinal vascular permeability; assay type: in vivo, Brown Norway rat; settings: daily i.p. for 28 days
human PPARα (hPPARα) [3] = molecular target: T1, human PPARα (hPPARα) (Homo sapiens, UniProt Q07869)
T1 sequence (Q07869 1-468): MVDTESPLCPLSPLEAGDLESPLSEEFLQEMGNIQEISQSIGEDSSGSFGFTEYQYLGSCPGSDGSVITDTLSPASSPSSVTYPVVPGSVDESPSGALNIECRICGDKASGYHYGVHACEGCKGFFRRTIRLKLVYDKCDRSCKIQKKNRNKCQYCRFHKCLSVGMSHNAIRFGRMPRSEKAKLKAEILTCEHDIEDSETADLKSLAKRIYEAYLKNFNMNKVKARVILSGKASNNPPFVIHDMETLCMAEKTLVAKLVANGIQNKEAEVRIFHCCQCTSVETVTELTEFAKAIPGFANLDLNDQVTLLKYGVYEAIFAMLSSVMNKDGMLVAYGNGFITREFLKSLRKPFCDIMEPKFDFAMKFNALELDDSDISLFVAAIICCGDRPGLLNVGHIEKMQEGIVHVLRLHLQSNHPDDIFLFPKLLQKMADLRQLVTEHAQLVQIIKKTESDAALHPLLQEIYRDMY

[4] = Stability in rat liver microsomes; assay type: in vitro ADME; settings: compared with 4a (A91)
[5] = molecular target: T2, Ligand Binding Domain of PPARα (Homo sapiens, UniProt Q07869); assay: Isothermal titration calorimetry; settings: 4b vs 4a; 4u vs 4b
T2 sequence (Q07869 239-466 limits assumed): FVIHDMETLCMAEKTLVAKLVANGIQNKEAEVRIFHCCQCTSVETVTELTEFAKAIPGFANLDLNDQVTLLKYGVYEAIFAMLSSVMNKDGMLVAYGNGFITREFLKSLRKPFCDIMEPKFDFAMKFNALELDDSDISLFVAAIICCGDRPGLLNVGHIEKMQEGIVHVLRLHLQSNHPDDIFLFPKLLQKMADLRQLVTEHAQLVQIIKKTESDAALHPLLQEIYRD

PPARα = molecular target: T3, PPARα (Homo sapiens, UniProt Q07869); assay: Cellular thermal shift assay; assay type: cell-based; settings: MIO-M1 cells, 45.5 °C
T3 sequence (Q07869 1-468): T1 sequence (Q07869 1-468)

[6] = system: cytochrome P450 isoforms (1A, 2C9, 2C19, 2D6, and 3A); assay: Time-dependent CYP inhibition in pooled human liver microsomes; assay type: in vitro ADME; settings: 10 μM, pre-incubation ± NADPH
human PPARα (hPPARα) [7] = molecular target: T1, human PPARα (hPPARα); assay: cell-based; settings: EC50 hPPARα (cellular potency), luciferase reporter
[8] = Stability in human liver microsomes; assay type: in vitro ADME; settings: compared with 4a (A91)

Chain of human ether-á-go-go (hERG) potassium channel (Q12809 whole entry): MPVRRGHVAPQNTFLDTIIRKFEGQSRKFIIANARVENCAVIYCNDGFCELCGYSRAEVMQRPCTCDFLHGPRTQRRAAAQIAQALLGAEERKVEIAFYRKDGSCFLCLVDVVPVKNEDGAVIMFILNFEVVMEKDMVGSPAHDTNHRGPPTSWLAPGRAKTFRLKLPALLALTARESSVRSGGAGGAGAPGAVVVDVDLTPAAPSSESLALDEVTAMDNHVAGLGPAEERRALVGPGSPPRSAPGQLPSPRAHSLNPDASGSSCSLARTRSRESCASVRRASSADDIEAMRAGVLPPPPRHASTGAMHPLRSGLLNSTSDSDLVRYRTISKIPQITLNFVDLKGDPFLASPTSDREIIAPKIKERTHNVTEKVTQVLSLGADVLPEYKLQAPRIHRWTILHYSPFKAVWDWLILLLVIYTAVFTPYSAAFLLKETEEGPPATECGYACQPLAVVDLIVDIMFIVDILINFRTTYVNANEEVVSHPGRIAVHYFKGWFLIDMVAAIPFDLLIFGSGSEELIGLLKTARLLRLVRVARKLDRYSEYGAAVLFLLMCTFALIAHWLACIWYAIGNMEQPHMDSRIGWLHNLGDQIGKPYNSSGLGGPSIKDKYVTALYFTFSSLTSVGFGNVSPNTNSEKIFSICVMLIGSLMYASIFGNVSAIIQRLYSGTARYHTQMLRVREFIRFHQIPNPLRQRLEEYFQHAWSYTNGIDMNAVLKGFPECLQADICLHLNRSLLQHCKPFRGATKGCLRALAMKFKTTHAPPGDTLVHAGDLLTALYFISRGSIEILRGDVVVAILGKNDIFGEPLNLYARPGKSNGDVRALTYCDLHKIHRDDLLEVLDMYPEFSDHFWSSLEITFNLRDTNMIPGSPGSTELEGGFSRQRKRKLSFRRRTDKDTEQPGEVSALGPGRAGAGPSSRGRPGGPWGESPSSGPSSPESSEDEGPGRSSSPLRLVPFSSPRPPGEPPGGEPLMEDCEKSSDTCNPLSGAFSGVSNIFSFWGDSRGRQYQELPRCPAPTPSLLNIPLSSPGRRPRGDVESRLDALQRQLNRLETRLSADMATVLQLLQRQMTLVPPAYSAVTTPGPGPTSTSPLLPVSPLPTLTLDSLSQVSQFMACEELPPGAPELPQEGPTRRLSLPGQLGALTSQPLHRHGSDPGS

Question: With `COc1ccc(COc2ccc(CNc3cccc(C(=O)O)c3)cc2)cc1` [Compound 4a, 3-((4-((4-methoxybenzyl)oxy)benzyl)amino)benzoic acid] as the compound, how does the “hERG channel liability” value [1] read?
Answer: low potency

Question: And the “hepatomegaly (liver phenotype)” value [2]?
Answer: lack signs of hepatomegaly

Question: What about the retinal vascular leakage ([2]; Evans blue tracer) of the same compound?
Answer: reduces retinal vascular leakage in diabetic rats to the range of the non-diabetic cohort

Question: Which SI (human PPARα (hPPARα) [3]; SI = EC50 (PPARγ or PPARδ) / EC50 (PPARα)) does the source give for `O=C(O)c1cccc(NCc2ccc(OCc3ccc(F)cc3F)cc2)c1` [Compound 4j, 3-((4-((2,4-difluorobenzyl)oxy)benzyl)amino)benzoic acid] here?
Answer: >175

Question: And the “selectivity for hPPARα over other PPAR isoforms” value (human PPARα (hPPARα) [3]; over hPPARγ and hPPARδ, no agonism up to 100 μM)?
Answer: > 175 fold

Question: With `O=C(O)c1cc(Cl)cc(NCc2ccc(OCc3ccc(F)cc3)cc2)c1` [Compound 4r, 3-chloro-5-((4-((4-fluorobenzyl)oxy)benzyl)amino)benzoic acid] as the compound, how does the “Ratio (5/50)” value (human PPARα (hPPARα) [3]; ratio of relative light unit (RLU) signal at 5 μM and 50 μM compound) read?
Answer: 0.11

Question: Which results are given for `Cc1cc(CNc2cccc(C(=O)O)c2)ccc1OCc1ccc(F)cc1` [Compound 4u, 3-((4-((4-fluorobenzyl)oxy)-3-methylbenzyl)amino)benzoic acid]?
Answer: hERG channel liability [1]: not considered a hERG liability; stability in liver microsomes [4]: significantly improved stability; improvement in binding affinity [5]: ~ 38 fold; rescue of PPARα stability (PPARα): 3 fold; time-dependent (irreversible) inhibition of major CYP450 isoforms [6]: no signs of irreversible inhibition; EC50 (human PPARα (hPPARα) [7]): ~40 nM; stability in liver microsomes [8]: significantly improved stability
